Test results published in patent US20120095012A1, “TOLUIDINE SULFONAMIDES AND THEIR USE” (Elara Pharmaceuticals GmbH, priority 2008, published 2012).

Assays:
[1] = test system: MCF-7 human breast adenocarcinoma cells; HRE-bla HCT116 cell line (colorectal carcinoma); assay: Cell proliferation assay (ATPlite luminescence); assay type: cell-based; details: ATPlite readout, cell line not given
Procedure: MCF-7 human breast adenocarcinoma cells were obtained from ATCC (LGC Promochem). The CellSensor® HRE-bla HCT116 cell line (colorectal carcinoma) was obtained from Invitrogen.
Cells were grown under humidified 95% air, 5% CO2 at 37° C. in Dulbecco's modified Eagle's medium (DMEM: MCF-7) or McCoy's 5A medium (HRE-bla HCT116) supplemented with 10% fetal bovine serum (FBS), 100 U/ml penicillin and 100 μg/ml streptomycin, 2 mM L-glutamine, and blasticidin at 5 μg/ml as a selection marker (for the HRE-bla HCT116 cell line only).
Cell proliferation experiments were carried out in 96-well tissue culture plates with seeding of 2000 cells/well in 100 μl of the relevant medium. Cells were subsequently incubated under the conditions mentioned for 24 h prior to addition of compounds.
To determine the degree of inhibition of cell proliferation, cells were treated with ATPlite solution according to the manufacturer's instructions (PerkinElmer, ATPlite 1-step Luminescence ATP Detection Assay System) and luciferase readout measured on an Envision HTS multilabel plate reader (PerkinElmer) in luminescence mode according to established protocols. Raw data were imported into an ActivityBase database (IDBS, ID Business Solutions) and EC50 values calculated using the IDBS program ActivityBase XE.

[2] = target: T1, tubulin (from porcine brain) (Sus scrofa, UniProt P02550+P02554); assay: Inhibition of in vitro tubulin polymerization (OD 340 nm, 90 min); assay type: biochemical; details: final absorbance at 90 min vs vehicle control, read-out: tubulin inhib. (at 10 μM)
T1 construct: prepared in-house from porcine brain using a standard procedure involving cycles of polymerization/de-polymerization; from tissue; host or cells: porcine brain
Procedure: To assess the degree of inhibition of in vitro tubulin polymerization, a tubulin solution (prepared in-house from porcine brain using a standard procedure involving cycles of polymerization/de-polymerization, (see Castoldi & Popov (2003) Protein Expr. Purif. 32(1): 83-88), was incubated with varying concentrations of compounds under polymerizing conditions and kinetic experiments performed to determine the amount of polymerization (as measured by changes in OD at 340 nm) taking place over a 90 min period.
Compound solutions were diluted in double-distilled water to yield final 10× solutions containing 5% DMSO. 5 μl solutions were then added to the wells on a 384-well clear-bottom plate (Corning #3711, Corning Inc.) in preparation for the addition of tubulin. The tubulin solution (19.6 mg/ml, in 80 mM K-PIPES [pH 6.8], 1 mM MgCl2, 1 mM EGTA) was re-suspended to a final concentration of 4 mg/ml with ice cold G-PEM buffer (80 mM PIPES [pH 6.8], 2 mM MgCl2, 0.5 mM EGTA, 10% glycerol, 1 mM GTP) and maintained on ice for at least 1 min. 50 μl was then added to the pre-dispensed compound solutions, the plate orbital shaken on a medium setting for 5s, and the first measurement begun immediately.
Experiments were carried out on a Safire^2 ™ monochromator (Tecan) preset to a stable temperature of 37° C.; the degree of polymerization was determined by measuring the absorbance of the solutions at 340 nm every minute over the 90 min cycle. Reported inhibition values were based on the final absorbance at 90 min and calculated with reference to a vehicle control (0.5% DMSO) using the minimum and maximum signals obtained for this sample.

[3] = test system: HIF mediated transcription; assay: Inhibition of activation of HIF mediated transcription under hypoxic conditions (CellSensor HRE-bla HCT-116 reporter, DFO-induced); assay type: cell-based; details: Homo sapiens; HRE-bla HCT-116 reporter cells, deferoxamine-induced hypoxia, 24 h
Procedure: Inhibition of an activated HIF signaling response under chemically-induced hypoxic conditions due to compound treatment was determined using the CellSensor® […] HCT-116 stably transfected reporter cell line from Invitrogen according to the manufacturer's instructions. HIF is a transcriptional factor composed of the constitutively expressed HIF 1β subunit and one of three HIFα subunits (HIF1α, HIF2α, HIF3α). This assay is responsive towards HIFα activity in general. In one example, HIF-1, when stabilized by hypoxic conditions, upregulates several genes to promote cell survival in low-oxygen conditions. These include glycolysis enzymes, which allow ATP synthesis in an oxygen-independent manner, and vascular endothelial growth factor (VEGF), which promotes angiogenesis. HIF-1 acts by binding to HIF-responsive elements (HREs) in promoters that generally contain the sequence NCGTG.
Cells were maintained as described previously and seeded into 384-well, clear-bottom plates (Corning 3712) at 15000 cells/well in 32 μl assay medium (Opti-MEM [Invitrogen], 0.5% FBS, 100 U/ml penicillin, 100 μg/ml streptomycin, 0.1 mM non-essential amino acids [NEAA], 1 mM sodium pyruvate, 5 mM HEPES [pH 7.3]). Following a 2 h incubation period, compounds (4 μl) were subsequently added to the cells at 10× concentrations in 5% DMSO and incubated under normal conditions for 30 min. To induce hypoxic conditions, 4 μl of a 2 mM deferoxamine (DFO) solution was added to the cells followed by 24 h incubation under standard assay conditions (as described). Control wells included wells containing only medium (no cells) and wells treated with 0.5% DMSO instead of compound.
Prior to the readout, the Substrate Loading Solution was prepared as described in the manufacturer's protocol and 10 μl added to each well. Following a further 2 h incubation period at room temperature and in the dark, fluorescence was measured at two wavelengths (blue channel: ex. 409 nm, em. 460 nm; green channel: ex. 409 nm, em. 530 nm) on a PerkinElmer Envision HTS. For the analysis, the average signal of the cell-free wells at 460 nm and 530 nm was first subtracted from the blue and green channel data, respectively. The blue/green emission ratios were then calculated for each well, dividing the background-corrected blue emission values by the background-corrected green emission values. IC50 values were determined from these ratios using GraphPad Prism (Prism 5, GraphPad software, Inc.).

T1 sequence (P02550 whole entry): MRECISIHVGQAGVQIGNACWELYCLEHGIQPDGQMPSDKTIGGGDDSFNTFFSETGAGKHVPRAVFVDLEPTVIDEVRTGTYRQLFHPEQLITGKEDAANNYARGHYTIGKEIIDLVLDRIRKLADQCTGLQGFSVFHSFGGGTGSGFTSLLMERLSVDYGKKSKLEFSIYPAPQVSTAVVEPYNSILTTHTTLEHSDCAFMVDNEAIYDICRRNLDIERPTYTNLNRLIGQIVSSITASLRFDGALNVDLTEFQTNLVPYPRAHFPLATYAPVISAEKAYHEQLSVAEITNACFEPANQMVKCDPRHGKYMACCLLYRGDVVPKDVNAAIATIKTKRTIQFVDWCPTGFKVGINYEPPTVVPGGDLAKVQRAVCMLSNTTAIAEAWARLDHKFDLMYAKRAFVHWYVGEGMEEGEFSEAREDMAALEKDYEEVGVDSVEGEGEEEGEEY
T1 sequence (P02554 whole entry): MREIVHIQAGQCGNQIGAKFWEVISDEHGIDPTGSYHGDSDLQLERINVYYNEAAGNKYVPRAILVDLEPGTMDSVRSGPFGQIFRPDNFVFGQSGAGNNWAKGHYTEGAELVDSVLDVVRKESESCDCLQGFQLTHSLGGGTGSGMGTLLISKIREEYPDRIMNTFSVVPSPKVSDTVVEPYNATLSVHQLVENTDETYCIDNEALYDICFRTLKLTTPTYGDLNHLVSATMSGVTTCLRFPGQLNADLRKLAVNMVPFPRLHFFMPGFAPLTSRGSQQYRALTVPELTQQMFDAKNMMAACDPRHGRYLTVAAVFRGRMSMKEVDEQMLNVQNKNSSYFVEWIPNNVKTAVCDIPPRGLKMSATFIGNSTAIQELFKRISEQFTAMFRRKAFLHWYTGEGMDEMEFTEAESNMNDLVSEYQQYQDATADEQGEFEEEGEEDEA

Molecule	EC50 ([1]; Homo sapiens)	also measured
Cc1ccc(-c2ccc(C#N)s2)cc1NS(=O)(=O)c1ccco1 [Example 6, Furan-2-sulfonic acid [5-(5-cyano-thiophen-2-yl)-2-methyl-phenyl]-amide]	1000 to 10000 nM	
Cc1ccc(-c2ccc(C#N)s2)cc1NS(=O)(=O)c1ccsc1 [Example 10, N-(5-(5-cyanothiophen-2-yl)-2-methylphenyl)thiophene-3-sulfonamide]	500 to 1000 nM	
Cc1ccc(-c2ccc(C#N)s2)cc1NS(=O)(=O)c1ccc(Cl)s1 [Example 11, 5-chloro-N-(5-(5-cyanothiophen-2-yl)-2-methylphenyl)thiophene-2-sulfonamide]	500 to 1000 nM	
Cc1ccc(-c2ccc(C#N)s2)cc1NS(=O)(=O)c1cn(C)cn1 [Example 12, N-(5-(5-cyanothiophen-2-yl)-2-methylphenyl)-1-methyl-1H-imidazole-4-sulfonamide]	1000 to 10000 nM	
Cc1cc(S(=O)(=O)Nc2cc(-c3ccc(C#N)s3)ccc2C)c(C)s1 [Example 13, N-(5-(5-cyanothiophen-2-yl)-2-methylphenyl)-2,5-dimethylthiophene-3-sulfonamide]	1000 to 10000 nM	
Cc1ccc(-c2ccc(C#N)s2)cc1NS(=O)(=O)c1cccnc1 [Example 14, N-(5-(5-cyanothiophen-2-yl)-2-methylphenyl)pyridine-3-sulfonamide]	1000 to 10000 nM	
Cc1ccc(-c2ccc(C#N)s2)cc1NS(=O)(=O)c1cn(C)c(C)n1 [Example 15, N-(5-(5-cyanothiophen-2-yl)-2-methylphenyl)-1,2-dimethyl-1H-imidazole-4-sulfonamide]	1000 to 10000 nM	
Cc1ccc(-c2ccc(C#N)s2)cc1NS(=O)(=O)c1ccc(C(F)(F)F)cn1 [Example 16, N-(5-(5-cyanothiophen-2-yl)-2-methylphenyl)-5-(trifluoromethyl)pyridine-2-sulfonamide]	1000 to 10000 nM	
Cc1ccc(-c2ccc(C#N)s2)cc1NS(=O)(=O)c1c(C)noc1C [Example 17, N-(5-(5-cyanothiophen-2-yl)-2-methylphenyl)-3,5-dimethylisoxazole-4-sulfonamide]	1000 to 10000 nM	
Cc1cc(S(=O)(=O)Nc2cc(-c3ccc(C#N)s3)ccc2C)c(C(F)(F)F)o1 [Example 19, N-(5-(5-cyanothiophen-2-yl)-2-methylphenyl)-5-methyl-2-(trifluoromethyl)furan-3-sulfonamide]	1000 to 10000 nM	
Cc1ccc(-c2ccc(C#N)cc2)cc1NS(=O)(=O)c1sccc1C [Example 20, N-(4′-cyano-4-methylbiphenyl-3-yl)-3-methylthiophene-2-sulfonamide]	1000 to 10000 nM	
Cc1ccc(-c2ccc(C#N)cc2)cc1NS(=O)(=O)c1ccc(C#N)nc1 [Example 21, 6-cyano-N-(4′-cyano-4-methylbiphenyl-3-yl)pyridine-3-sulfonamide]	1000 to 10000 nM	
Cc1cccc(S(=O)(=O)Nc2cc(-c3ccc(C#N)s3)ccc2C)n1 [Example 22, N-(5-(5-cyanothiophen-2-yl)-2-methylphenyl)-6-methylpyridine-2-sulfonamide]	1000 to 10000 nM	
Cc1ccc(S(=O)(=O)Nc2cc(-c3ccc(C#N)s3)ccc2C)nc1 [Example 25, N-(5-(5-cyanothiophen-2-yl)-2-methylphenyl)-5-methylpyridine-2-sulfonamide]	< 500 nM	
Cc1ccc(-c2ccc(C#N)cc2)cc1NS(=O)(=O)c1ccc(Cl)nc1 [Example 26, 6-chloro-N-(4′-cyano-4-methylbiphenyl-3-yl)pyridine-3-sulfonamide]	< 500 nM	
Cc1ccc(-c2ccc(C#N)s2)cc1NS(=O)(=O)c1ccc(Cl)nc1 [Example 28, 6-chloro-N-(5-(5-cyanothiophen-2-yl)-2-methylphenyl)pyridine-3-sulfonamide]	< 500 nM	
Cc1ccc(-c2ccc(C#N)s2)cc1NS(=O)(=O)c1ccc(N(C)C)nc1 [Example 29, N-(5-(5-cyanothiophen-2-yl)-2-methylphenyl)-6-(dimethylamino)pyridine-3-sulfonamide]	< 500 nM	
N-(4′-cyano-4-methylbiphenyl-3-yl)-6-(dimethylamino)pyridine-3-sulfonamide [Example 27]		EC50 [1]: 500 to 1000 nM

Continued, in another order:

EC50 ([1]; Homo sapiens)	Molecule	also measured
< 500 nM	Cc1ccc(S(=O)(=O)Nc2cc(-c3ccc(C#N)s3)ccc2C)s1 [Example 3, 5-Methyl-thiophene-2-sulfonic acid [5-(5-cyano-thiophen-2-yl)-2-methyl-phenyl]-amide]	inhibition at 10 µM [2]: < 20%
< 500 nM	COc1ccc(S(=O)(=O)Nc2cc(-c3ccc(C#N)cc3)ccc2C)cn1 [Example 4, 6-Methoxy-pyridine-3-sulfonic acid (4′-cyano-4-methyl-biphenyl-3-yl)-amide]	
< 500 nM	CCc1ccc(S(=O)(=O)Nc2cc(-c3ccc(C#N)cc3)ccc2C)s1 [Example 5, 5-Ethyl-thiophene-2-sulfonic acid (4′-cyano-4-methyl-biphenyl-3-yl)-amide]	
< 500 nM	COc1ccc(S(=O)(=O)Nc2cc(-c3csc(C#N)c3)ccc2C)cn1 [Example 7, N-(5-(5-cyanothiophen-3-yl)-2-methylphenyl)-6-methoxypyridine-3-sulfonamide]	EC50 [3]: < 500 nM
< 500 nM	Cc1ccc(S(=O)(=O)Nc2cc(-c3ccc(C#N)cc3)ccc2C)s1 [Example 8, N-(4′-cyano-4-methylbiphenyl-3-yl)-5-methylthiophene-2-sulfonamide]	EC50 [3]: < 500 nM
< 500 nM	Cc1ccc(-c2ccc(C#N)s2)cc1NS(=O)(=O)c1cccs1 [Example 9, N-(5-(5-cyanothiophen-2-yl)-2-methylphenyl)thiophene-2-sulfonamide]	
< 500 nM	COc1ccc(S(=O)(=O)Nc2cc(-c3ccc(C#N)c(OC)c3)ccc2C)cn1 [Example 18, N-(4′-cyano-3′-methoxy-4-methylbiphenyl-3-yl)-6-methoxypyridine-3-sulfonamide]	EC50 [3]: < 500 nM
< 500 nM	Cc1ccc(S(=O)(=O)Nc2cc(-c3ccc(C#N)cc3)ccc2C)cn1 [Example 23, N-(4′-cyano-4-methylbiphenyl-3-yl)-6-methylpyridine-3-sulfonamide]	EC50 [3]: < 500 nM
< 500 nM	Cc1ccc(S(=O)(=O)Nc2cc(-c3ccc(C#N)s3)ccc2C)cn1 [Example 24, N-(5-(5-cyanothiophen-2-yl)-2-methylphenyl)-6-methylpyridine-3-sulfonamide]	EC50 [3]: < 500 nM
